Values of other authors in patent publication US12440499B2, “Topical composition” (MC2 Therapeutics Limited, priority 2018, dated 2025).

Settings: in presence of water

C=C1/C(=C\C=C2/CCC[C@]3(C)[C@@H]([C@H](C)/C=C/[C@@H](O)C4CC4)CC[C@@H]23)C[C@@H](O)C[C@@H]1O [calcipotriol]
pH value for maximum stability: above 8
